A short description of series [1]: Cytotoxicity assay, HaCaT. Format: cell-based. Particulars: HaCaT immortalized human keratinocytes. Here is the method: (§1) Cytotoxicity assay was performed as detailed previously^43 except A549 lung carcinoma and HaCaT immortalized human keratinocytes were used in this study.
A short description of series [2]: Cytotoxicity assay, A549. Format: cell-based, human. The settings on record: human, A549 lung carcinoma cells. Here is the method: as §1
The test system of series [3] is S. aureus 25923. As to the kind of experiment: Microdilution assay (MIC) against control strain S. aureus 25923. Format: cell-based. The settings on record: Staphylococcus aureus. Here is the method: (§2) The antimicrobial activity of the seven compounds against community-acquired MRSA strain USA300 were first screened. […] With a molecular weight of 266.3, MC4 has been reported to be of use only to form a metal complex dye in optical layers for optical data recording.^26 The antimicrobial activities of MC4 against a panel of representative strains of pathogens were then tested.
(§3) Bacterial Strains and Chemicals. The following bacterial strains were used in this study for the microdilution assay: Enterococcus faecalis ATCC 29212, Klebsiella pneumonia ATCC 700603, Acinetobacter baumannii ATCC 19606, Pseudomonas aeruginosa PA01, Enterobacter cloacae ATCC 13047, E. coli ATCC 25922, Proteus vulgaris ATCC 6380, and S. aureus USA300, ATCC 25923, ATCC 29213, ST22, ST30, ST45, ST59, ST239, JE-2, BAA44. E. coli strain DH5a (Gibco BRL) was used in this study for cloning and BL21 (DE3) pLysS^23 was used for protein overproduction. 5-fluorouracil, rifampicin and other antibiotics used in the microdilution assay were purchased from SigmaAldrich. Compounds MC1-7 were purchased from MolPort.
(§4) Antibacterial activity test. Microdilution assay was performed according to the Clinical & Laboratory Standards Institute recommendations.^42 Serial 2-fold dilutions of the tested compounds and antibiotic controls were made from 256 μg/ml to 0.5 μg/ml. DMSO was included as a negative control.

Series [4] has as its system healthcare acquired MRSA ST239. The series can be described thus: Microdilution assay (MIC) against healthcare acquired MRSA ST239. Format: cell-based, Staphylococcus aureus. Here is the method: as §2, §3, §4
On the technique in general: Dilution methods test growth across graded concentrations, often in twofold steps.

The test system of series [5] is A549 lung carcinoma. As to the kind of experiment: Cytotoxicity assay, A549. Format: cell-based, human. Particulars: mammalian cell lines (Table 1: A549, HaCaT), compared to 5-fluorouracil. Here is the method: as §1
Series [6] concerns the target T1, NusB-NusE interaction (Bacillus subtilis, UniProt P54520).
T1 construct: 6xHis (N); made in house; host or cells: E. coli BL21 (DE3) pLysS
As to the kind of experiment: ELISA-based inhibitory assay of NusB-NusE heterodimer formation. Format: binding, B. subtilis. The settings on record: NusB coated plate, GST-tagged NusE probe; read-out: IC50, inhibition of the NusB-NusE interaction. Here is the method:
Finally, to establish MC4's mode of action at the molecular level, an enzyme-linked immunosorbant assay-based inhibitory assay was performed to assess the in vitro inhibition of NusB-NusE heterodimer formation by MC4.^24 Purified NusB was used to coat the 96-well plate, and GST-tagged NusE was used as the probe. […] With the change in the phenyl acetylene group to phenols, the IC50 values of the corresponding MC4 analogues increased, while deletion of this terminal triple bond or replacing by methyl or chloride caused a reduced IC50. When p-nitrophenol was modified to o-nitrophenol, the IC50 values increased, probably because of the involvement of the phenol group in the binding interaction with NusB Y81 (Table 3).
Protein overproduction and purification. B. subtilis NusB (wild type and mutant) and NusE-GST were overproduced from plasmids (Table 2) and purified using a similar approach to that described previously.^45 Purified proteins were dialyzed into 20 mM KH2PO4, 150 mM NaCl, 30% glycerol, pH 7.8 and stored at […].
ELISA-based assays. These assays were performed as described previously,^41 except NusB was used to coat the NUNC MaxiSorp™ 96-well plates and GST-tagged NusE used as the probe.
(An ELISA detects its analyte on a solid surface through an enzyme-linked reagent.)

Series [7] relates to S. aureus ATCC 25923 cells. The series can be described thus: DNA, protein and rRNA quantitation in treated cells. Format: cell-based, Staphylococcus aureus. Particulars: one-quarter MIC, exponential growth, versus control cells. Here is the method:
The level of macromolecules in S. aureus ATCC 25923 cells during exponential growth due to MC4 treatment were analyzed.
DNA, protein and rRNA quantitation. MC4, oxacillin and rifampicin at ¼ MIC level were added to S. aureus strain ATCC 25923 in LB medium at early log phase (OD595=0.2), which was then grown to mid-log phase (OD595==0.5). For DNA and protein quantitation, 1 ml cells were harvested and treated with 10 mg/ml lysozyme+0.5 mg/ml lysostaphin at RT for 1 hr before centrifugation at 13000 g/min for 3 min. The supernatant was discarded and cells lysed with 600 μl Nuclei Lysis Solution (Promega/Genomic DNA Purification Kit) for 5 min, followed by gentle sonication. The amount of DNA was quantified with Qubit dsDNA BR (broad range) and protein quantified with NanoOrange™ Protein Quantitation Kit (ThermoFisher). For rRNA quantitation, 1 ml culture was collected and treated with RNAProtect (Qiagen), before total RNA was extracted with an RNeasv Mini Kit (Qiagen). DNase I treatment was performed with a TURBO DNA-free Kit (ThermoFisher). The extracted RNA was subjected to Agilent 2100 analysis, and the level of major rRNA (the sum of 16S+23S rRNA) as percentage of total RNA. The values were compared across each treatment group. All experiments were repeated three times.

Series [8] concerns community-acquired MRSA strain USA300. The series can be described thus: Microdilution assay (MIC) against community-acquired MRSA strain USA300. Particulars: Staphylococcus aureus, read-out: minimum inhibitory concentration (MIC). Format: cell-based. Here is the method: as §2, §3, §4
Series [9] concerns the target T2, NusE (Bacillus subtilis, UniProt P21471).
T2 construct: 3C protease site + GST (C); made in house; host or cells: E. coli BL21 (DE3) pLysS
As to the kind of experiment: Isothermal titration calorimetry, NusE. Format: binding, B. subtilis. In general terms: Isothermal titration calorimetry measures the heat released or taken up as one component is titrated into another.

Series [10] addresses T3, B. subtilis NusB wild type protein (Bacillus subtilis, UniProt P54520).
T3 construct: 6xHis (N); made in house; host or cells: E. coli BL21 (DE3) pLysS
As to the kind of experiment: Isothermal titration calorimetry, NusB wild type. Format: binding. Particulars: ITC. Here is the method: (§5) The interaction between MC4 and NusB was also biophysically quantified. […] Further experiments will be performed to resolve the structure of NusB in complex with MC4 for target validation, as well as structure-based lead optimization.
(§6) Isothermal calorimetric titration (ITC). ITC experiments were performed as described previously.^41 For compound testing, a 50 mM stock made up in DMSO was diluted to 500 μM in ITC buffer (50 mM KH2PO4, 150 mM NaCl, pH 7.4). All proteins were dialysed into ITC buffer and were supplemented with the same concentration of DMSO (1% v/v) to minimize buffer miss-match. MC4 was then titrated against 50 μM NusB wild type and mutants as described previously^41 using 1% DMSO in ITC buffer as the negative control.

Series [11] has as its system NusB variants (Y18A, D76A, and D81A). The series can be described thus: Isothermal titration calorimetry, NusB variants. Format: binding, B. subtilis. Here is the method:
as §5, §6

≈ marks a conversion by molar mass, not a printed value. Where “and” joins values, the source holds several entries; their conditions need not be identical. Identical values can stand only once.

Usually CC50 stands for the concentration giving 50% cytotoxicity. A high value points to better tolerance by the cells. By IC50 is commonly meant the point on the concentration scale where inhibition reaches its midpoint. One may read the Kd as the free concentration of one partner at which half of the binding sites on the other are occupied at equilibrium, for simple one-to-one binding. A higher Kd goes with a looser complex.

T1 sequence (P54520 whole entry): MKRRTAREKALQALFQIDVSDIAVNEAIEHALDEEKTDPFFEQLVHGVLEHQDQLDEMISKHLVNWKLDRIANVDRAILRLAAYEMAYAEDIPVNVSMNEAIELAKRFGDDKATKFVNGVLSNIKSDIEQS
T3 sequence (P54520 whole entry): as above

For the compound `O=c1[nH]cc(F)c(=O)[nH]1` [5-fluorouracil, reference compound], the CC50 in [1] is < 0.001 µM; in series [2], 0.00562 ± 2e-06 µM.
`C#Cc1cccc(/N=C/c2cc([N+](=O)[O-])ccc2O)c1` [MC4, (E)-2-[[(3-ethynylphenyl)imino]methyl]-4-nitrophenol] displayed an MIC in [3] of 8 µg/mL (≈ 30 µM). Further, in series [1], the CC50 was found to be 695.1 ± 5.95 µM. The MIC in [4] was 16 µg/mL (≈ 60.1 µM). In [2], this compound registered a cytotoxic concentration (CC50) of 183 ± 7.71 µM. Further, in series [5], the “cytotoxicity against mammalian cell lines” value is recorded as “did not show significant cytotoxicity”. In addition, the half-inhibitory concentration (IC50) in series [6] was ~34.7 µM and 34.7 µM. Moreover, in series [7], the DNA level result was “none of the treatment affected the DNA level”, the protein level result is “significant reduction in the protein level” and the “rRNA level (16S+23S)” value was “significant reduction in the rRNA level”. For the same compound, the MIC in series [8] was 64 µg/mL (≈ 240 µM). Besides, the “Binding to NusE by ITC” value in [9] is “could not be detected”. Further, in series [10], the N is reported as 0.988±0.076, the ΔH was -7.141 ± 0.9398 kcal/mol and the ΔS was −1.81 cal/mol/deg. The compound also had a Kd in series [10] (one-site binding mode) of 1.45 ± 0.55 µM. Moreover, the “Binding to NusB variants by ITC” value in series [11] is given as “could not be detected”.
For the compound `O=[N+]([O-])c1cccc(/C=N/c2ccccc2)c1O` [MC4-1, 2-nitro-6-[(E)-(phenylimino)methyl]phenol], the 50% inhibitory concentration (IC50) in [6] came out at 14.4 ± 2.59 µM.
On the same count and under the same terms, the same measure for `O=[N+]([O-])c1ccc(O)c(C=Nc2ccccc2)c1` [MC4-4, 4-nitro-2-[(phenylimino)methyl]phenol]: 147 ± 17.9 µM.
On the same count and under the same terms, the value for `Cc1cccc(/N=C/c2cc([N+](=O)[O-])ccc2O)c1` [MC4-5, 2-{(E)-[(3-methylphenyl)imino]methyl}-4-nitrophenol] was 971 ± 11.6 µM.
For `O=[N+]([O-])c1ccc(O)c(/C=N/c2ccc(O)cc2)c1` [MC4-6, 2-{(E)-[(4-hydroxyphenyl)imino]methyl}-4-nitrophenol], the IC50 in [6] was determined as 0.00815 µM.
The same measure, in the same setting: the same measure for `O=[N+]([O-])c1ccc(O)c(/C=N/c2ccc(Cl)cc2)c1` [MC4-7, 2-{(E)-[(4-chlorophenyl)imino]methyl}-4-nitrophenol]: 1639 ± 12.7 µM; for `O=[N+]([O-])c1ccc(O)c(/C=N/c2cccc(O)c2)c1` [MC4-8, 2-{(E)[(3-hydroxyphenyl)imino]methyl}-4-nitrophenol]: 0.00692 µM.
For the compound `Cc1onc(-c2ccccc2)c1C(=O)N[C@@H]1C(=O)N2[C@@H]1SC(C)(C)[C@@H]2C(=O)O` [oxacillin, reference compound], in series [7], the DNA level result is recorded as “none of the treatment affected the DNA level”, the protein level entry is “slightly higher than those of control cells” and the “rRNA level (16S+23S)” value is “slightly higher than those of control cells”.

Values taken from patent US11479529B2, “Compounds with antimicrobial activity” (The Hong Kong Polytechnic University, priority 2018, dated 2022).
